Source: article PMC10527514 (Gastroenterology, 2023)

How the values were obtained:
Type in all cases: cell-based
[1] = target: T1, PPARα (Homo sapiens, UniProt Q07869); assay: PathHunter nuclear hormone receptor cell assay, chemiluminescence
T1 sequence (Q07869 1-468): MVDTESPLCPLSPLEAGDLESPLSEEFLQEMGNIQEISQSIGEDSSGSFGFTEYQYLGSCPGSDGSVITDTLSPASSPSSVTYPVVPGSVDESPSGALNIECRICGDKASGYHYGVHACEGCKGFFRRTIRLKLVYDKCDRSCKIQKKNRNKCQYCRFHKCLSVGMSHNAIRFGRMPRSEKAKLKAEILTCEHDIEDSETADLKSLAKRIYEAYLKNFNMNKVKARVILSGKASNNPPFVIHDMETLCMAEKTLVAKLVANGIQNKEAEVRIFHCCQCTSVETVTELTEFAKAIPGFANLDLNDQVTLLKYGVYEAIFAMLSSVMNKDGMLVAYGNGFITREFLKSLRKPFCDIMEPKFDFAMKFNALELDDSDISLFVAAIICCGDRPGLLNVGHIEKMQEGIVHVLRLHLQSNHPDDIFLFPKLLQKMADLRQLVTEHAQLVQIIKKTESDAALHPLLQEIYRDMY

[2] = target: T2, PPARγ (Homo sapiens, UniProt P37231); assay: as above
T2 sequence (P37231 1-505): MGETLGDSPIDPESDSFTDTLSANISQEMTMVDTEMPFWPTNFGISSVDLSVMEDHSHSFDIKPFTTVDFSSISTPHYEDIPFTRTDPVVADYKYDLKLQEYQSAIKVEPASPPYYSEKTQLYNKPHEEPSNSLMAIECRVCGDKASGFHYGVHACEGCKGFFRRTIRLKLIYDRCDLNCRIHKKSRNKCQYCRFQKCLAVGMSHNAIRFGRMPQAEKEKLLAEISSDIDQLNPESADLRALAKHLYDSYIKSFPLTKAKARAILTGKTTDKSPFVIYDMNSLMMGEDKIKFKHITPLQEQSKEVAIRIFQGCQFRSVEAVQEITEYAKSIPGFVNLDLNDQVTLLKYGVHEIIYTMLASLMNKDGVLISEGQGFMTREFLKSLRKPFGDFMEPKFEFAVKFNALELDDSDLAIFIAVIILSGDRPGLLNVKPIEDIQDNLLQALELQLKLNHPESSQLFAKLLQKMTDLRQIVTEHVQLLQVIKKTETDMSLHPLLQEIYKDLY

[3] = target: GPR84 (Homo sapiens, UniProt Q9NQS5); assay: Hit Hunter cAMP assay in cAMP Hunter cells
Chain of GPR84 (Q9NQS5 whole entry): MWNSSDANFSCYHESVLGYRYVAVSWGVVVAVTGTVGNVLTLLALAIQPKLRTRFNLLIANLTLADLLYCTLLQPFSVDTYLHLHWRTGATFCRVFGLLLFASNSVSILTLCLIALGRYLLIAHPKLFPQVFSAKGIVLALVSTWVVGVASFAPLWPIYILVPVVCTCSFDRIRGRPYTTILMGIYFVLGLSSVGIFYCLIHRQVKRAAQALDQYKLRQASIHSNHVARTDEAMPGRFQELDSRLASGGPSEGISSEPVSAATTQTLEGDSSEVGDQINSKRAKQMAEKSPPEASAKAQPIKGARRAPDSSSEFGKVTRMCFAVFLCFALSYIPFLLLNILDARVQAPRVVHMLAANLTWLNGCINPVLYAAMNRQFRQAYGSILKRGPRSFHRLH

## CCCCCOc1cccc(C(=O)O)c1C [SEFA-6179]
[1]
  EC50: 4.4 µM
[2]
  EC50: 40 µM
[3]
  EC50: 12 µM
